This is an account of results in patent US7538220B2, “Intermediates in the preparation of homocamptothecin analogs” (University of Pittsburgh - of the Commonwealth System of …, priority 1999, dated 2009).

Data set [1] in a line: Lactone ring stability in PBS by HPLC. The class given is physicochemical. The note with it: 37° C., 1 μM. The procedure:
FIG. 12 contrasts the improved stabilities of four novel homosilatecans of the present invention with their corresponding silatecan structure containing the α-hydroxylactone functionality. All the experiments of FIG. 12 were conducted in PBS at 37° C.
(§1) HPLC solvents were from Fisher Scientific.
To determine the stabilities of homosilatecans in PBS, an aliquot of each of the homosilatecans in DMSO was added to phosphate buffered saline (PBS), pH 7.4 in a HPLC autosampler vial maintained at 37° C. in a water bath to result in final drug concentration of 1 μM. The drug-containing vial was quickly transferred to the autosampler maintained at 37° C. and aliquots analyzed at various time points. All the determinations were done in triplicate. The data was collected and analyzed using Waters Millenium software. The fraction of lactone was calculated using the peak area of lactone and carboxylate peak and using the lactone/carboxylate ratio.

A short description of data set [2]: Lactone ring stability in PBS containing human serum albumin by HPLC. The class given is in vitro ADME. The note with it: PBS with 30 mg/ml HSA, 37° C., 1 μM. Here is the method:
(§2) FIG. 13 depicts the improved stabilities of four novel homosilatecans of the current invention following incubation in PBS containing 30 mg/ml human serum albumin at 37° C. […] All the experiments of FIG. 14 were conducted in human plasma at 37° C. Plasma samples were continuously aerated by a stream of blood gas resulting in the maintenance of pH at values of 7.5±0.1.
as §1
To study the stabilities of homosilatecans in PBS containing human serum albumin (HSA), the HSA was dissolved in PBS, pH 7.4 at the concentration of 30 mg/ml and incubated at 37° C. The pH was measured and adjusted to 7.4+/−0.5 using 0.1 M KOH or 0.1 M HCl. Incubation continued until pH stabilized within the target range. An aliquot of PBS/HSA was removed and placed in an autosampler vial and maintained at 37° C. for 10 min. An aliquot of the drug in DMSO was added to the sample resulting in a final drug concentration of 1 μM. The vial was quickly added to the HPLC autosampler maintained at 37° C. and aliquots were injected and analyzed by HPLC at different time points. The data analysis was as described above for the drug in PBS only samples.

A short description of data set [3]: Lactone ring stability in human plasma by HPLC. The conditions noted are these: 3 hours, 37° C., pH 7.5, 1 μM. The class given is in vitro ADME. Here is the method:
as §2, §1
To characterize the stabilities of the novel silatecans of interest in human plasma, frozen plasma was incubated at 37° C. in order to thaw. Blood gas was bubbled through the plasma to adjust the pH close to 7.5. […] The samples were then allowed to incubate further at 37° C. […] Tubes were vortexed for 10 sec and centrifuged in a tabletop microcentrifuge at 8000 rpm for 45 sec. […] The sample was analyzed by HPLC as soon as possible. The data analysis was as described for drug in PBS only samples as described above. Blood gas was continuously bubbled through the plasma samples to pH at 7.5+/−[…].

Data set [4] in a line: Lactone ring stability in PBS suspensions of albumin-free red blood cells by HPLC. The class given is in vitro ADME, human. The conditions noted are these: albumin-free RBC in PBS (5±1)×10^6 cell/μL, 37° C. The procedure:
FIG. 15 depicts the stabilities of four novel homosilatecans of the current invention in PBS suspensions containing physiologically-relevant concentrations [(5±1)×10^6 cell/μL] of albumin-free red blood cells. Stability characteristics were determined at 37° C. using HPLC methods.
as §1
To study the stabilities of the novel homosilatecans in the presence of physiologically relevant concentrations of red blood cells (RBC), the following experiments were performed. Packed Red blood cells obtained from the Central Kentucky Red Cross and were counted using a Coulter Cell Counter. The number of cells was adjusted to 5×10^12 Cells/L using PBS, pH 7.4 and incubated at 37° C. for 30 min. […] RBCs were incubated at 37° C. for 30 min and the pH remeasured to ensure that it was within the same range as before the assays were started. […] Aliquots of drug in DMSO were added to RBC suspensions in PBS to result in final drug concentration of 1 μM. […] The sample was analyzed on HPLC as soon as possible.

Data set [5] has as its system MDA-MB-435 tumorigenic metastatic human breast cancer cells. Kind of data set: Cytotoxicity, sulphorrhodamine B (SRB) assay. The conditions noted are these: MDA-MB-435, 72 h, read-out: IC50 (w/o HSA). The class given is cell-based. The procedure: Cytotoxicity measurements were conducted using MDA-MB-435 tumorigenic human breast cancer cells. The cells were exposed to a range of drug concentrations for 72 hr exposure periods and then viability was assessed using a sulphorrhodamine B (SRB) assay. The SRB measures the total protein levels in the living cells. Proteins from dead cells are lysed and removed in the washing step before TCA fixation. However, it is possible that cells in the early stage of death still have their membrane integrity and therefore retain the protein contents inside. As a result, the optical density at 490 nm can sometimes be overestimated and the cytotoxicity underestimated. […] The SRB assay is now a well regarded assay and was recently approved by NCl as a standard assay for anticancer drug screening. […] Each IC50 value represents the average of three separate trials with each dosage level studied in triplicate.

Data set [6] in a line: Lactone ring stability in mouse blood by HPLC. The conditions noted are these: for Ratio of Lactone Level Mouse/Human / underestimation of human blood lactone level by mouse blood: blood; for Ratio of Lactone Level Mouse/Human: 3 hours of incubation; for Percent Lactone in Mouse Blood after 3 Hours of Incubation: pH 7.4, 37° C.; for underestimation of human blood lactone level by mouse blood: 3 hours.
Procedure: The hydrolysis kinetics of camptothecins in the presence of different blood components were determined by a quantitative C18 reversed-phase high-performance liquid chromatography (HPLC) assay modified from methodologies described previously in the literature cited above. The preparation of whole blood and fractionated blood samples was carried out as described previously. Crystallized HSA of high purity (>97%) from Sigma Chemical (St. Louis, Mo.) was used. HSA stock solutions were prepared in PBS buffer with a final pH of 7.40±0.05. HSA concentrations were determined by UV absorbance at 278 nm using an extinction coefficient of 39,800 M^−1 cm^−1 (Porter, 1992). All other agents were reagent grade and were used without further purification. High purity water provided by a Milli-Q UV PLUS purification system (Bedford, Mass.) was utilized in all experiments. HPLC solvents were from Fisher Scientific. Human plasma and red blood cells were obtained from Central Kentucky Blood Center. […] Blood from mice was collected in heparinized tubes and stored at 5-10° C. until use.
HPLC assays were performed either on a Waters Alliance 2690 HPLC system equipped with a temperature-controlled autosampler and Waters 474 scanning fluorescence detector. A second HPLC system was composed of a Waters HPLC system composed of 501 HPLC pumps, 717 Plus temperature-controlled autosampler and 470 scanning fluorescence detector. The HPLC assay procedures used for the homosilatecans are summarized below. Solvent A consisted of acetonitrile and Solvent B was 2% triethylammonium acetate, pH 5.5, with a flow rate of 1 ml/min. For DB-38 an isocratic elution was used: 33% Solvent A; 67% Solvent B; λex:345 nm and λem:518 nm. For DB-81 an isocratic elution was used: 56% Solvent A; 44% Solvent B; and λex:375 nm and λem:444 nm. For DB-90 an isocratic elution was used: 41% Solvent A; 59% Solvent B; λex:412 nm and λem:526 nm. For DB-91 an isocratic elution of 42% Solvent A, 58% Solvent B, and λex:392 nm and λem:562 nm.
To determine drug stability in whole blood, whole blood was incubated at 37° C. for 30 min and pH determined. Blood pH was adjusted to 7.4+/−0.5 using either 0.1 M KOH or 0.1 M HCl. Blood samples were incubated at 37° C. for 30 min and pH remeasured to ensure that it is within the range before an individual assay was started. Aliquots of blood (2 ml each) were removed and placed in three disposable glass test tubes and the tubes were incubated at 37° C. […] Incubation at 37° C. was continued and 150 μl aliquots were removed at different time points and added to 600 μl of cold methanol (−20° C.) in an eppendorf tube. The tube was then vortexed for 10 sec and centrifuged in a table top microcentrifuge at 8000 rpm for 45 sec. The Supernatant was removed and placed in an autosampler vial and the vial quickly added to the autosampler maintained at 4° C. The sample was analyzed immediately on the HPLC set-up. The data analysis was as described for the drug in PBS only samples.

SMILES strings stand for the structures.

As for `CCC1(O)CC(=O)OCc2c1cc1n(c2=O)Cc2c-1nc1ccc(N)cc1c2[Si](C)(C)C` (racemic) [DB-38, 5-Ethyl-1,4,5,13-tetrahydro-5-hydroxy-10-amino-12-trimethylsilyl-3H,15H-oxepino[3′,4′:6,7]indolizino[1,2-b]quinoline-3,15-dione], the “% Lactone” value worked out at 82.8 ± 0.7% in data set [1] (PBS pH 7.4, 3 hours); 26.8 ± 2.3% in data set [1] (PBS pH 7.4, 24 hours); 81.4 ± 0.3% in data set [2] (3 hours); 34.1 ± 2.2% in data set [2] (24 hours); 40.3 ± 2.1% in data set [3]; 84.8 ± 1.5% in data set [4] (3 hours). The “% Lactone” value in data set [4] (24 hours) worked out at 39.4 ± 1.2%. In addition, in data set [5], the IC50 stood at 20 nM. Also, the “Ratio of Lactone Level Mouse/Human” value in data set [6] amounted to 1.3. In data set [6], the “Percent Lactone in Mouse Blood after 3 Hours of Incubation” value (“Percent Lactone in Mouse Blood” for short) is 72%.
With `CCC1(O)CC(=O)OCc2c1cc1n(c2=O)Cc2c-1nc1ccc(O)cc1c2[Si](C)(C)C(C)(C)C` (racemic) [DB-91, 5-Ethyl-1,4,5,13-tetrahydro-5-hydroxy-10-hydroxy-12-tert-butyldimethylsilyl-3H,15H-oxepino[3′,4′:6,7]indolizino[1,2-b]quinoline-3,15-dione], the “% Lactone” value in data set [1] (PBS pH 7.4, 3 hours) amounted to 83.1 ± 0.3%; in data set [1] (PBS pH 7.4, 24 hours), 32.2 ± 1.0%; in data set [2] (3 hours), 82.9 ± 0.3%; in data set [2] (24 hours), 33.2 ± 3.0%; in data set [3] it was 61.5 ± 3.9%; in data set [4] (3 hours), 88.5 ± 0.2%. Also, in data set [4] (24 hours), the “% Lactone” value was 42.6 ± 2.6%. Besides, the IC50 in data set [5] was 115 ± 5 nM. In data set [6], the “underestimation of human blood lactone level by mouse blood” value was 20%. In data set [6], the “Ratio of Lactone Level Mouse/Human” value is 0.8. Further, in data set [6], the “Percent Lactone in Mouse Blood” value came out at 70%.
For the compound `CCC1(O)CC(=O)OCc2c1cc1n(c2=O)Cc2c-1nc1ccccc1c2[Si](C)(C)C(C)(C)C` (racemic) [DB-81, 5-Ethyl-1,4,5,13-tetrahydro-5-hydroxy-12-tert-butyldimethylsilyl-3H,15H-oxepino[3′,4′:6,7]indolizino[1,2-b]quinoline-3,15-dione], the “% Lactone” value was 84.9 ± 0.3% in data set [1] (PBS pH 7.4, 3 hours); 30.9 ± 2.0% in data set [1] (PBS pH 7.4, 24 hours); 88.1 ± 0.2% in data set [2] (3 hours); 42.5 ± 1.6% in data set [2] (24 hours); 85.0 ± 4.3% in data set [3]; 92.0 ± 0.0% in data set [4] (3 hours). The “% Lactone” value in data set [4] (24 hours) is given as 55.8 ± 1.7%. The IC50 in data set [5] worked out at 77 ± 13 nM. Further, the “underestimation of human blood lactone level by mouse blood” value in data set [6] is listed as 6%. For the same compound, the “Ratio of Lactone Level Mouse/Human” value in data set [6] was 0.9. For the same compound, in data set [6], the “Percent Lactone in Mouse Blood” value is on record as 80%.
In the case of `CCC1(O)CC(=O)OCc2c1cc1n(c2=O)Cc2c-1nc1ccc(N)cc1c2[Si](C)(C)C(C)(C)C` (racemic) [DB-90, 5-Ethyl-1,4,5,13-tetrahydro-5-hydroxy-10-amino-12-tert-butyldimethylsilyl-3H,15H-oxepino[3′,4′:6,7]indolizino[1,2-b]quinoline-3,15-dione], the “% Lactone” value in data set [1] (PBS pH 7.4, 3 hours) is 83.7 ± 0.5%; in data set [1] (PBS pH 7.4, 24 hours), 26.1 ± 1.0%; in data set [2] (3 hours), 86.8 ± 0.2%; in data set [2] (24 hours) it was 42.0 ± 2.7%; in data set [3], 71.1 ± 3.5%; in data set [4] (3 hours) it was 85.5 ± 0.4%. Further, in data set [4] (24 hours), the “% Lactone” value came to 38.5 ± 1.4%. Further, in data set [5], the IC50 worked out at 73 ± 8 nM. Besides, the “Ratio of Lactone Level Mouse/Human” value in data set [6] worked out at 0.7. Further, in data set [6], the “Percent Lactone in Mouse Blood” value turned out to be 61%.
